Data: PMC11096521 (Frontiers in Pharmacology, 2024)

How the values were obtained:
BCRP = biological target: T1, BCRP (Homo sapiens, UniProt Q9UNQ0)
T1 construct: gene ABCG2
T1 sequence (Q9UNQ0 1-655): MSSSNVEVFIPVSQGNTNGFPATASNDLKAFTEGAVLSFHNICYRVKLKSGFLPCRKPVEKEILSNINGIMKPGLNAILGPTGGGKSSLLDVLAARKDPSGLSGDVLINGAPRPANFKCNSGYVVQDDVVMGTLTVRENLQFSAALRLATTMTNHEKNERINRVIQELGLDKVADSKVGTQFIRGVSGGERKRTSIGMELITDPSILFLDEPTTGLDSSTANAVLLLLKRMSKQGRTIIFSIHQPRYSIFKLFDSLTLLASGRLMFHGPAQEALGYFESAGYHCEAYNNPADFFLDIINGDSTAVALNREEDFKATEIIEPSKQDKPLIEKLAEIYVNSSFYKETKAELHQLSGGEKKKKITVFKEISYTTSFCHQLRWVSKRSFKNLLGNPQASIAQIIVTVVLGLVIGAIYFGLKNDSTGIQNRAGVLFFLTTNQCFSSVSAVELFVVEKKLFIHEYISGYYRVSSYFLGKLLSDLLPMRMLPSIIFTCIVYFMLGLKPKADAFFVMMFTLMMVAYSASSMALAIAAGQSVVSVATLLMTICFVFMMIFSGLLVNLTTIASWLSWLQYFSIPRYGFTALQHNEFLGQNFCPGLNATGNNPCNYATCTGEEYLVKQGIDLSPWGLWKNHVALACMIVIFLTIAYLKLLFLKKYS

P-gp = biological target: T2, P-gp (Homo sapiens, UniProt P08183); assay: inhibition of ceralasertib-stimulated P-gp ATPase in crude membranes
T2 construct: gene ABCB1; crude membrane protein isolated from High Five insect cells
T2 sequence (P08183 whole entry): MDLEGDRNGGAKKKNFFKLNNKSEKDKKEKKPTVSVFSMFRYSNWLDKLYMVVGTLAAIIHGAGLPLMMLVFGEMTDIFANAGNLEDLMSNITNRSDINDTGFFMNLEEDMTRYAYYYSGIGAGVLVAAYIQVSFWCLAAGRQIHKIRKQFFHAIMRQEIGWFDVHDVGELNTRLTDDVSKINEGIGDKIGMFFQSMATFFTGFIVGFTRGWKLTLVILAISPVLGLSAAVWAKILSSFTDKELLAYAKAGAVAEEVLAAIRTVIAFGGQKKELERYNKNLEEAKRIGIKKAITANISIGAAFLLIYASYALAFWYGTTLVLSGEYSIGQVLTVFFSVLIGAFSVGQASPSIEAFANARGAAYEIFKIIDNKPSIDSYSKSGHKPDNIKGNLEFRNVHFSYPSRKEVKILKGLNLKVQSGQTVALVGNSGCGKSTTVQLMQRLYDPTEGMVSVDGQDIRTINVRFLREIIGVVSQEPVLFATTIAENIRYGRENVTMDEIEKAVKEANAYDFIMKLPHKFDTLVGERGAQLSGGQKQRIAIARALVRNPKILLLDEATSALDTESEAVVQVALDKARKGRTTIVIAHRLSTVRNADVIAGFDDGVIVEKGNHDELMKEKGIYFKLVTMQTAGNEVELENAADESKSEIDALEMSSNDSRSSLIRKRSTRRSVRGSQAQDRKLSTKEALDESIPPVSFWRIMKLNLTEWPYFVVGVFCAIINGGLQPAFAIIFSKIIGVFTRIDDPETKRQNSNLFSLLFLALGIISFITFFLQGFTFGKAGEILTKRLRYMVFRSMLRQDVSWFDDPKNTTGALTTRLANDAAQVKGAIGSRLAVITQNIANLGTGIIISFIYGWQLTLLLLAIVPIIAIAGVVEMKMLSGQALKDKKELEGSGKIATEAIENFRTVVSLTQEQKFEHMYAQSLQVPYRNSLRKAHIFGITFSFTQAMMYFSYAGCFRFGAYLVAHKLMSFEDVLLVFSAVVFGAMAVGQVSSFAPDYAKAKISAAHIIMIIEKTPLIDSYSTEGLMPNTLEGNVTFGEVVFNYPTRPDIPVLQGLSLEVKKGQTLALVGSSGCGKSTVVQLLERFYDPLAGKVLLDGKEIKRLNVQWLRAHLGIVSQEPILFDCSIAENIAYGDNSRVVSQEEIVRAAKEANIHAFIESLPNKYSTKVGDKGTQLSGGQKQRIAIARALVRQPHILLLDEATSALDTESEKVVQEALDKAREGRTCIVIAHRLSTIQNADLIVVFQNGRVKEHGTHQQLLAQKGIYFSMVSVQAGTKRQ

SMILES | radiolabelled efflux/accumulation in NCI-H460/TPT10 cells, reversed by Ko143 (BCRP) | inhibition of ceralasertib-stimulated P-gp ATPase in crude membranes (P-gp)
O=C1c2c(O)ccc(O)c2C(=O)c2c(NCCNCCO)ccc(NCCNCCO)c21 [mitoxantrone] | BCRP-overexpressing NCI-H460/TPT10 cells have decreased intracellular level of [^3H]-mitoxantrone, which can be reversed by Ko143 | 
CN1CCC(COc2cnc(-c3cccc(Cn4nc(-c5cccc(C#N)c5)ccc4=O)c3)nc2)CC1 [tepotinib] |  | Tepotinib, a P-gp ATPase inhibitor, was able to significantly block the activation caused by ceralasertib.
